Measured values as given in patent US9232796B2, “Herbicidal compositions comprising 4-amino-3-chloro-5-fluoro-6-(4-chloro-2-fluoro-3-methoxyphenyl) pyridine-2-carboxylic acid or a derivative thereof and acetyl-CoA carboxylase (ACCase) inhibitors” (DOW AGROSCIENCES LLC, priority 2012, dated 2016).

Assays:
BRAPP = test: Example I postemergence foliar-applied, greenhouse, direct seeded rice weeds; type: in vivo, Brachiaria platyphylla (Griseb.) Nash
From the text: (§1) Seeds or nutlets of the desired test plant species were planted in a soil matrix prepared by mixing a loam or sandy loam soil (e.g., 28.6 percent silt, 18.8 percent clay, and 52.6 percent sand, with a pH of about 5.8 and an organic matter content of about 1.8 percent) and calcareous grit in an 80 to 20 ratio. The soil matrix was contained in plastic pots with a volume of 1 quart and a surface area of 83.6 square centimeters (cm^2). When required to ensure good germination and healthy plants, a fungicide treatment and/or other chemical or physical treatment was applied. The plants were grown for 8-22 days in a greenhouse with an approximate 14 hr. photoperiod which was maintained at about 29° C. during the day and 26° C. during the night. Nutrients (Peters Excel® 15-5-15 5-Ca 2-Mg and iron chelate) were applied in the irrigation solution as needed and water was added on a regular basis. Supplemental lighting was provided with overhead metal halide 1000-Watt lamps as necessary. The plants were employed for testing when they reached the first through fourth true leaf stage.
(§2) Treatments consisted of the acid or esters of 4-amino-3-chloro-5-fluoro-6-(4-chloro-2-fluoro-3-methoxy-phenyl)pyridine-2-carboxylic acid (Compound A), each formulated as an SC (suspension concentrate), and various herbicidal components alone and in combination.
(§3) Other herbicidal components were applied on an acid equivalent (ae) or active ingredient (ai) basis and included acetyl coA carboxylase (ACCase)-inhibiting herbicides (cyclohexanedione and aryloxyphenoxypropionate chemical classes) cyhalofop-butyl formulated as Clincher® SF (285 gr ai/L EC), diclofop-methyl formulated as Hoelon® 3EC, fenoxaprop-p-ethyl+isoxadifen-ethyl formulated as RiceStar® HT (0.58 lb./gal EC), fenoxaprop-p-ethyl+mefenpyr diethyl formulated as Puma® IEC, metamifop formulated as Metamifop EC, haloxyfop-methyl formulated as Gallant Super®, fluazifop-p-butyl formulated as Fusilade® DX, quizalofop-p-ethyl formulated as Assure® II, profoxydim formulated as Aura® 20EC, clethodim applied as Intensity®, sethoxydim formulated as Poast®, and tralkoxydim formulated as Achieve®.
(§4) Treatment requirements were calculated based upon the rates being tested, the concentration of active ingredient or acid equivalent in the formulation, and a 12 mL application volume at a rate of 187 L/ha.
(§5) For treatments comprised of formulated compounds, measured amounts of compounds were placed individually in 25 mL glass vials and diluted in a volume of 1.25% (v/v) Agri-Dex® crop oil concentrated to obtain 12× stock solutions. […] Application solutions were prepared by adding an appropriate amount of each stock solution (e.g., 1 mL) and diluted to the appropriate final concentrations with the addition of 10 mL of an aqueous mixture of 1.25% (v/v) crop oil concentrate so that the final spray solutions contained 1.25+/−0.05% (v/v) crop oil concentrate.
(§6) All stock solutions and applications solutions were visually inspected for compound compatibility prior to application. Spray solutions were applied to the plant material with an overhead Mandel track sprayer equipped with a 8002E nozzles calibrated to deliver 187 L/ha over an application area of 0.503 m^2 at a spray height of 18 to 20 inches (46 to 50 cm) above average plant canopy height. Control plants were sprayed in the same manner with the solvent blank.
(§7) The treated plants and control plants were placed in a greenhouse as described above and watered by sub-irrigation to prevent wash-off of the test compounds. After approximately 3 weeks, the condition of the test plants as compared with that of the untreated plants was determined visually and scored on a scale of 0 to 100 percent where 0 corresponds to no injury or growth inhibition and 100 corresponds to complete kill. […]

CYPRO = test: Example II in-water applied, greenhouse, transplanted paddy rice weeds; type: in vivo, Cyperus rotundus L.
Protocol: (§8) Weed seeds or nutlets of the desired test plant species were planted in puddled soil (mud) prepared by mixing a shredded, non-sterilized mineral soil (50.5 percent silt, 25.5 percent clay, and 24 percent sand, with a pH of about 7.6 and an organic matter content of about 2.9 percent) and water at a 1:1 volumetric ratio. The prepared mud was dispensed in 365 mL aliquots into 16-ounce (oz.) non-perforated plastic pots with a surface area of 86.59 square centimeters (cm^2) leaving a headspace of 3 centimeters (cm) in each pot. Mud was allowed to dry overnight prior to planting or transplanting. Rice seeds were planted in Sun Gro MetroMix® 306 planting mixture, which typically has a pH of 6.0 to 6.8 and an organic matter content of about 30 percent, in plastic plug trays. Seedlings at the second or third leaf stage of growth were transplanted into 860 mL of mud contained in 32-oz. non-perforated plastic pots with a surface area of 86.59 cm^2 4 days prior to herbicide application. The paddy was created by filling the headspace of the pots with 2.5 to 3 cm of water. […] The plants were grown for 4-22 days in a greenhouse with an approximate 14 hr. photoperiod which was maintained at about 29° C. during the day and 26° C. during the night. Nutrients were added as Osmocote® (19:6:12, N:P:K+minor nutrients) at 2 g per 16-oz. pot and 4 g per 32-oz. pot. Water was added on a regular basis to maintain the paddy flood, and supplemental lighting was provided with overhead metal halide 1000-Watt lamps as necessary. The plants were employed for testing when they reached the first through fourth true leaf stage.
(§9) Treatments consisted of the acid or esters of 4-amino-3-chloro-5-fluoro-6-(4-chloro-2-fluoro-3-methoxy-phenyl)pyridine-2-carboxylic acid (compound A) each formulated as an SC (suspension concentrate) and various herbicidal components alone and in combination.
(§10) For formulated compounds, a measured amount was placed in an individual 100 or 200 mL glass vial and was dissolved in a volume of 1.25% (v/v) Agri-Dex® crop oil concentrate to obtain application solutions.
(§11) Applications were made by injecting with a pipetter appropriate amounts of the application solutions, individually and sequentially, into the aqueous layer of the paddy. Control plants were treated in the same manner with the solvent blank. Applications were made so that all treated plant material received the same concentrations of acetone and crop oil concentrate.
(§12) The treated plants and control plants were placed in a greenhouse as described above and water was added as needed to maintain a paddy flood. After approximately 3 weeks the condition of the test plants as compared with that of the untreated plants was determined visually and scored on a scale of 0 to 100 percent where 0 corresponds to no injury or growth inhibition and 100 corresponds to complete kill.
(§13) Colby's equation was used to determine the herbicidal effects expected from the mixtures (Colby, S. R. 1967. Calculation of the synergistic and antagonistic response of herbicide combinations. Weeds 15:20-22.).
(§14) The following equation was used to calculate the expected activity of mixtures containing two active ingredients, A and B: Expected=A+B−(A×B/100)

IPOHE = test: Example I postemergence foliar-applied, greenhouse, direct seeded rice weeds; type: in vivo, Ipomoea hederacea Jacq.
From the text: as §1, §2, §3, §4, §5, §6, §7

SCPJU [1] = test: as above; type: in vivo, Schoenoplectus juncoides (Roxb.) Palla
From the text: as §1, §2, §3, §4, §5, §6, §7

ECHCO = test: as above; type: in vivo, Echinochloa colona (L.) Link
From the text: as §1, §2, §3, §4, §5, §6, §7

SCPJU [2] = test: Example II in-water applied, greenhouse, transplanted paddy rice weeds; type: in vivo, Schoenoplectus juncoides (Roxb.) Palla; settings: in-water
Protocol: as §8, §9, §10, §11, §12, §13, §14

ECHOR = test: Example VI in-water applied ternary mixtures, greenhouse, transplanted paddy rice weeds; type: in vivo, Echinochloa oryzoides (Ard.) Fritsch
Protocol: (§15) Weed seeds or nutlets of the desired test plant species were planted in puddled soil (mud) prepared by mixing a shredded, non-sterilized mineral soil (50.5 percent silt, 25.5 percent clay, and 24 percent sand, with a pH of about 7.6 and an organic matter content of about 2.9 percent) and water at a 1:1 volumetric ratio. The prepared mud was dispensed in 365 mL aliquots into 16-ounce (oz.) non-perforated plastic pots with a surface area of 86.59 square centimeters (cm^2) leaving a headspace of 3 centimeters (cm) in each pot. Mud was allowed to dry overnight prior to planting or transplanting. Rice seeds were planted in Sun Gro MetroMix® 306 planting mixture, which typically has a pH of 6.0 to 6.8 and an organic matter content of about 30 percent, in plastic plug trays. Seedlings at the second or third leaf stage of growth were transplanted into 860 mL of mud contained in 32-oz. non-perforated plastic pots with a surface area of 86.59 cm^2 4 days prior to herbicide application. The paddy was created by filling the headspace of the pots with 2.5 to 3 cm of water. When required to ensure good germination and healthy plants, a fungicide treatment and/or other chemical or physical treatment was applied. The plants were grown for 4-22 days in a greenhouse with an approximate 14 hr. photoperiod which was maintained at about 29° C. during the day and 26° C. during the night. Nutrients were added as Osmocote® (19:6:12, N:P:K+minor nutrients) at 2 g per 16-oz. pot and 4 g per 32-oz. pot. Water was added on a regular basis to maintain the paddy flood, and supplemental lighting was provided with overhead metal halide 1000-Watt lamps as necessary. The plants were employed for testing when they reached the first through fourth true leaf stage.
(§16) Treatments consisted of the benzyl ester of 4-amino-3-chloro-5-fluoro-6-(4-chloro-2-fluoro-3-methoxy-phenyl)pyridine-2-carboxylic acid (Compound A), formulated as an SC (suspension concentrate), an ACCase inhibitor herbicide, and a third herbicidal component, each applied alone and in ternary combination. Forms of compound A were applied on an acid equivalent basis.
(§17) The ACCase inhibitor component was applied on an active ingredient basis and included cyhalofop-R-butyl formulated as Clincher® G and metamifop formulated as Metamifop EC. Other herbicidal components were applied on an active ingredient or acid equivalent basis depending on the compound and included penoxsulam formulated as Grasp® SC, bentazon sodium formulated as Basagran®, triclopyr […] (TEA) salt formulated as Grandstand® R, benzobicyclon formulated as Benzobicyclon, benfuresate formulated as Full Slot® WG, pyraclonil formulated as Pyraclon® Flowable, mefenacet (technical grade material), and pretilachlor (technical grade material).
(§18) Treatment requirements for each compound or herbicidal component were calculated based upon the rates being tested, the concentration of active ingredient or acid equivalent in the formulation, an application volume of 1 mL per component per pot, and an application area of 86.59 cm^2 per pot.
as §10
(§19) For technical grade compounds, a weighed amount was placed in an individual 100 to 200 mL glass vial and was dissolved in a volume of acetone to obtain concentrated stock solutions.
as §11, with “solutions,” for “solutions, individually and sequentially,”
(§20) The treated plants and control plants were placed in a greenhouse as described above and water was added as needed to maintain a paddy flood. […]

FIMMI = test: as above; type: in vivo, Fimbristylis miliacea (L.) Vahl; settings: Table 67, 50 gai/ha, 24 DAA
Protocol: as §15, §16, §17, §18, §10, §19
as §11, with “solutions,” for “solutions, individually and sequentially,”
as §20

ECHCG = test: as above; type: in vivo, Echinochloa crus-galli (L.) Beauv.; settings: Table 67, 100 gai/ha, 21 DAA
Protocol: as §15, §16, §17, §18, §10, §19
as §11, with “solutions,” for “solutions, individually and sequentially,”
as §20

Row | SMILES | Visual Weed Control (%) - 20 DAA BRAPP Obs (BRAPP; 6.75 gai/ha) [%] | Visual Weed Control (%) - 20 DAA BRAPP Obs (BRAPP; 13.5 gai/ha) [%] | Visual Weed Control (%) - 20 DAA CYPRO Obs (CYPRO; 13.5 gai/ha) [%] | Visual Weed Control (%) - 20 DAA CYPRO Obs (CYPRO; 27 gai/ha) [%] | Visual Weed Control (%) - 20 DAA IPOHE Obs (IPOHE; 6.75 gai/ha) [%] | Visual Weed Control (%) - 20 DAA IPOHE Obs (IPOHE; 13.5 gai/ha) [%] | Visual Weed Control (%) - 20 DAA IPOHE Obs (IPOHE; 27 gai/ha) [%] | Visual Weed Control (%) - 20 DAA SCPJU Obs (SCPJU [1]; 6.75 gai/ha) [%] | Visual Weed Control (%) - 20 DAA SCPJU Obs (SCPJU [1]; 13.5 gai/ha) [%] | Visual Weed Control (%) - 20 DAA SCPJU Obs (SCPJU [1]; 27 gai/ha) [%] | Visual Weed Control (%) - 20 DAA ECHCO Obs (ECHCO; 6.75 gai/ha) [%] | Visual Weed Control (%) - 20 DAA ECHCO Obs (ECHCO; 13.5 gai/ha) [%] | Visual Weed Control (%) - 20 DAA ECHCO Obs (ECHCO; 27 gai/ha) [%] | Visual Weed Control (%) - 20 DAA SCPJU Obs (SCPJU [2]; 13.5 gai/ha) [%] | Visual Weed Control (%) - 20 DAA SCPJU Obs (SCPJU [2]; 27 gai/ha) [%] | Visual Weed Control (%) - 24 DAA ECHOR Obs (ECHOR; Table 67, 25 gai/ha) [%] | Visual Weed Control (%) - 24 DAA ECHOR Obs (ECHOR; Table 67, 50 gai/ha) [%] | Visual Weed Control (%) - 24 DAA FIMMI Obs (FIMMI) [%] | Visual Weed Control (%) - 21 DAA ECHCG Obs (ECHCG) [%]
1 | COC(=O)[C@@H](C)Oc1ccc(Oc2ncc(C(F)(F)F)cc2Cl)cc1 [Haloxyfop-methyl, methyl(2R)-2-[4-[[3-chloro-5-(trifluoromethyl)-2-pyridinyl]oxy]phenoxy]propanoate] | 0 | 0 | 0 | 0 | 0 | 0 | 0 | 0 | 0 | 0 | 0 | 0 | 0 | 0 | 0 |  |  |  | 
2 | CS(=O)(=O)c1ccc(C(=O)C2=C(Sc3ccccc3)C3CCC(C3)C2=O)c(Cl)c1 (stereo not shown) [Benzobicylon] |  |  |  |  |  |  |  |  |  |  |  |  |  |  |  | 10 | 10 | 68 | 20
